Reference: patent US20130177994A1, “METHODS FOR QU[…] DETERMINATION OF THE d- AND l- ENANTIOMERS OF AMPHETAMINE AND METHAMPHETAMINE” (CLINICAL REFERENCE LABORATORY, INC., priority 2012, published 2013)

Test: Donor sample analysis by chiral LC/MS/MS (oral fluid)
Assay type: in vivo
Text: HPLC conditions were adapted from a separation method posted on the manufacturer's website (Sigma-Aldrich) using UV detection. A Supelco Astec Chirobiotic® V2 chiral column (5 μm particle size, 2.1×250 mm) from Sigma-Aldrich was used to achieve the chiral separation of the enantiomers for amphetamine and methamphetamine. The Chirobiotic® V2 column employs vancomycin as the chiral stationary phase to induce separation. The mobile phase consisted of 99.89:0.1:0.01 methanol:acetic acid:ammonium hydroxide (v/v/v) with a flow rate of 0.5 mL/min. The column temperature was 30° C. The HPLC employed was a Shimadzu Nexera UPLC system (Kyoto, Japan) operating at typical HPLC pressures. The injection volume for the method was 5 μL.
Detection was performed by an API 4000 triple-quadrupole mass spectrometer from AB Sciex (Foster City, Calif., USA). Column eluent was introduced into the mass spectrometer using the Turbolonspray® source operating in the positive ionization mode. Multiple-reaction monitoring (MRM) was used to analyze and detect each compound with a high degree of selectivity. The ionspray voltage was set at 5000V and the source temperature was 550° C. Parameters such as declustering potential (DP), collision energy (CE) and entrance and exit potentials (EP and CXP) were optimized for each analyte. The total analysis time for the method is 10 minutes.
Sample extraction was accomplished by aliquoting 200 μL of oral fluid sample into a 16×75 mm culture tube and adding 50 μL of internal standard (200 ng/mL racemic D11-amphetamine and […]). The sample was then treated with 25 μL of 10% sodium periodate solution and allowed to sit for 30 minutes after mixing. A 500 μL aliquot of 0.1 M phosphoric acid was added to each sample and mixed prior to transfer to the SPE wells.
The Agilent SPEC-DAU 96-well SPE plate was conditioned with 1 mL of methanol followed by 0.5 mL of 0.1 M phosphoric acid. Nitrogen gas was used to apply positive pressure for all SPE steps to induce a flow rate of about 1 to 2 mL per minute. […]
Several donor samples have been analyzed by this method. […]

Row | SMILES | % d-amphetamine in samples containing amphetamine (9 out of 25 donor samples, consistent with Adderall use) | % d-amphetamine in samples containing amphetamine (the remaining donor samples) [%] | % d-methamphetamine in samples containing methamphetamine (all donor samples containing methamphetamine) [%]
1 | C[C@H](N)Cc1ccccc1 [d-Amphetamine, d-amphetamine] | approximately 70% | 100 | –
2 | CN[C@@H](C)Cc1ccccc1 [d-Methamphetamine, d-methamphetamine] | – | – | > 90
